Some test systems named below: SN12C renal; UO-31 renal; HOP-62 NSCLC; K-562 leukemia; RPMI-8226 leukemia; ACHN renal; UACC-257 melanoma; OVCAR-3 ovarian; PC-3 prostate; RXF 393 renal.
Holding throughout (experiment): DTP human tumour cell line panel, 48 h

SMILES strings stand for the structures. “And” between values parts separate entries of the source, which are not always exact repeats. Equal values may be shown once.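 Five compound concentrations were applied to cells in 96-well plates for 48 hours; endpoints were derived by simple linear interpolation of the resulting dose-response curve. GI50 is the concentration that inhibits growth by half. Definition used: TGI = concentration required for complete inhibition of growth.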 Bounds are passed on as bounds.

For orientation: TGI means the concentration giving total growth inhibition. A high value points to lower sensitivity of the cells. `COc1ccccc1C(=O)Nc1ccc(Cl)c(C(=O)OC(C)C)c1`: the TGI in the assay on SN12C renal was over 100 µM; in the assay with UO-31 renal, 27.9 µM; in the assay on HOP-62 NSCLC it was over 100 µM; with K-562 leukemia, over 100 µM; in the assay on RPMI-8226 leukemia it was 77.6 µM; with ACHN renal, 28.4 µM. Besides, the TGI is over 77.1 µM in the assay on UACC-257 melanoma, over 65.4 µM with OVCAR-3 ovarian, over 100 µM in the assay with PC-3 prostate and over 100 µM in the assay with RXF 393 renal.

Consider `CSc1ccc(NC(=O)CCl)cc1`, for which the TGI in the assay with SN12C renal was over 10 µM; with UO-31 renal it was 9.79 µM; in the assay with HOP-62 NSCLC it was over 10 µM; in the assay on K-562 leukemia, over 10 µM; in the assay on RPMI-8226 leukemia, over 10 µM; in the assay with ACHN renal, over 10 µM. Further, the TGI in the assay with UACC-257 melanoma, in the assay on OVCAR-3 ovarian, in the assay on PC-3 prostate and with RXF 393 renal was over 10 µM throughout.

As usually defined, the GI50 is the concentration that inhibits growth by half. On to `COc1ccccc1CNC(=O)/C=C/c1ccc(O)c(O)c1`, for which the GI50 in the assay with SN12C renal was 68.6 µM; in the assay on UO-31 renal, 20.5 µM; in the assay with HOP-62 NSCLC it was 61.9 µM; in the assay on K-562 leukemia, 39.6 µM; with RPMI-8226 leukemia it was 34.7 µM; in the assay on ACHN renal it was 24.5 µM. Also, the GI50 in the assay with UACC-257 melanoma was 84.6 µM; in the assay with OVCAR-3 ovarian, 67.3 µM; in the assay with PC-3 prostate, over 100 µM; with RXF 393 renal, 54.9 µM. Moreover, the TGI in the assay on SN12C renal, in the assay on UO-31 renal, with HOP-62 NSCLC, with K-562 leukemia, in the assay on RPMI-8226 leukemia and in the assay with ACHN renal was over 100 µM throughout. Further, the TGI in the assay with UACC-257 melanoma, in the assay on OVCAR-3 ovarian, with PC-3 prostate and in the assay on RXF 393 renal was over 100 µM throughout.

Take `COc1cc(-c2cn(-c3ccc(F)cc3)c(=O)[nH]2)cc(OC)c1OC`: the GI50 is 9.93 µM in the assay on SN12C renal; over 100 µM with UO-31 renal; 45 µM in the assay on HOP-62 NSCLC; over 100 µM in the assay on K-562 leukemia; over 100 µM in the assay on RPMI-8226 leukemia; over 100 µM with ACHN renal. The GI50 with UACC-257 melanoma, with OVCAR-3 ovarian, in the assay on PC-3 prostate and in the assay with RXF 393 renal was over 100 µM in each case. Besides, the TGI in the assay with SN12C renal, in the assay on UO-31 renal, with HOP-62 NSCLC, with K-562 leukemia, in the assay on RPMI-8226 leukemia and in the assay with ACHN renal was over 100 µM throughout. Also, the TGI in the assay with UACC-257 melanoma, in the assay on OVCAR-3 ovarian, in the assay on PC-3 prostate and in the assay with RXF 393 renal was over 100 µM in each case.

For `COc1ccc(-n2nc(C(=O)NCC(=O)Nc3nc4cc(OC)ccc4s3)c3ccccc3c2=O)cc1`, the GI50 was 3.45 µM in the assay with SN12C renal; 2.28 µM in the assay with UO-31 renal; 0.663 µM with HOP-62 NSCLC; over 37.7 µM in the assay with K-562 leukemia; 1.1 µM in the assay on ACHN renal; 1.28 µM in the assay with UACC-257 melanoma. Moreover, the GI50 in the assay on OVCAR-3 ovarian was 0.85 µM; with PC-3 prostate, 1.26 µM; with RXF 393 renal, 0.698 µM. In addition, the TGI was over 40.7 µM with SN12C renal; 2.07 µM with HOP-62 NSCLC; over 100 µM in the assay with K-562 leukemia; over 100 µM with RPMI-8226 leukemia; 8.7 µM with ACHN renal; 5.07 µM with UACC-257 melanoma. The molecule further gave a concentration for total growth inhibition (TGI) in the assay with RXF 393 renal of 2.07 µM.

`O=C(O)c1ccccc1C(=O)Nc1cc2c(cc1Br)-c1ccccc1C2=O`: the TGI in the assay with SN12C renal, in the assay with UO-31 renal, in the assay with HOP-62 NSCLC, in the assay on K-562 leukemia, in the assay on RPMI-8226 leukemia and with ACHN renal was over 100 µM each time. The TGI with UACC-257 melanoma, in the assay with OVCAR-3 ovarian, in the assay on PC-3 prostate and with RXF 393 renal was over 100 µM each time.

As for `Cn1c(=O)c2[nH]c(CCS)nc2n(C)c1=O`, the TGI in the assay with SN12C renal, in the assay with UO-31 renal, with HOP-62 NSCLC, in the assay with K-562 leukemia, with RPMI-8226 leukemia and with ACHN renal was over 100 µM in each case. In addition, the TGI in the assay with UACC-257 melanoma, in the assay on OVCAR-3 ovarian, with PC-3 prostate and in the assay with RXF 393 renal was over 100 µM throughout.

For `O=C(Oc1c(Cl)c(Cl)c(Cl)c(Cl)c1Cl)C1CCCN1C(=O)OCc1ccccc1` (stereo not drawn), the GI50 is 3.24 µM in the assay on SN12C renal; 2.9 µM in the assay with UO-31 renal; 3.45 µM in the assay on HOP-62 NSCLC; 3.43 µM in the assay with K-562 leukemia; 2.45 µM in the assay with RPMI-8226 leukemia; 2.62 µM in the assay on ACHN renal. Further, the GI50 with UACC-257 melanoma is 4.29 µM; in the assay with OVCAR-3 ovarian it was 3.27 µM; in the assay on PC-3 prostate, 2.95 µM; in the assay on RXF 393 renal, 3.94 µM. Further, the TGI in the assay on SN12C renal stood at 12.5 µM; in the assay on UO-31 renal, 12.3 µM; with HOP-62 NSCLC, 14.9 µM; in the assay on K-562 leukemia, 19.3 µM; with RPMI-8226 leukemia it was 6.83 µM; in the assay with ACHN renal, 8.09 µM. Besides, the concentration for total growth inhibition (TGI) in the assay with UACC-257 melanoma worked out at 17.7 µM; with OVCAR-3 ovarian, 9.84 µM; in the assay with PC-3 prostate, 11.6 µM; in the assay with RXF 393 renal, 15.4 µM.

For the molecule `COc1cc(NC(=O)c2cc3ccccc3cc2O)c(OC)cc1Cl`, the GI50 in the assay on SN12C renal is 1.87 µM; in the assay with UO-31 renal, 1.16 µM; with HOP-62 NSCLC, 1.44 µM; in the assay with K-562 leukemia, 1.84 µM; in the assay on RPMI-8226 leukemia it was 0.153 µM; in the assay on ACHN renal, 1.81 µM. The GI50 in the assay with UACC-257 melanoma was 2.05 µM; in the assay on OVCAR-3 ovarian, 1.41 µM; in the assay with PC-3 prostate, 1.56 µM; in the assay on RXF 393 renal it was 2.24 µM. The TGI in the assay on SN12C renal was 6.36 µM; with UO-31 renal, over 24.9 µM; in the assay on HOP-62 NSCLC, 4.7 µM; in the assay on RPMI-8226 leukemia, 1.18 µM; in the assay on ACHN renal, 5.23 µM; in the assay with UACC-257 melanoma, 5.55 µM. The TGI in the assay with OVCAR-3 ovarian worked out at 4.1 µM; with PC-3 prostate it was 4.46 µM; in the assay with RXF 393 renal, 8.01 µM.

Regarding `O=C(Cc1ccc(-c2ccc(OCCN3CCOCC3)cc2)cn1)NCc1ccccc1`, the GI50 in the assay on SN12C renal was 0.0845 µM and 0.0611 µM; in the assay with UO-31 renal, 0.0821 µM and 0.2 µM; in the assay on HOP-62 NSCLC, 0.0372 µM and 0.066 µM; in the assay with K-562 leukemia, 0.0255 µM and 0.0264 µM; in the assay on RPMI-8226 leukemia, 0.0427 µM and 0.0358 µM; in the assay with ACHN renal, 0.0857 µM and 0.0811 µM. Also, the GI50 is 0.112 µM and 0.711 µM with UACC-257 melanoma; 0.0352 µM in the assay with OVCAR-3 ovarian; 0.0446 µM and 0.0456 µM in the assay with PC-3 prostate; 0.0108 µM in the assay with RXF 393 renal. Moreover, the TGI was over 100 µM with SN12C renal; over 100 µM in the assay with UO-31 renal; over 88.4 µM in the assay on HOP-62 NSCLC; over 100 µM in the assay with K-562 leukemia; over 50.2 µM with RPMI-8226 leukemia; over 100 µM in the assay with ACHN renal. Moreover, the TGI with UACC-257 melanoma was 94.9 µM and > 10 µM; in the assay with PC-3 prostate, over 100 µM; in the assay on RXF 393 renal it was 0.0497 µM.

As for `COC(=O)C[C@@H]1CC=CC(=O)/C1=C(O)/C=C/c1ccccc1`, the GI50 was 0.462 µM with SN12C renal; 0.303 µM in the assay on UO-31 renal; 0.56 µM in the assay on HOP-62 NSCLC; 0.364 µM in the assay with K-562 leukemia; 0.303 µM in the assay with RPMI-8226 leukemia; 0.268 µM in the assay on ACHN renal. The GI50 in the assay on UACC-257 melanoma was 1.34 µM; in the assay on OVCAR-3 ovarian it was 0.3 µM; with PC-3 prostate, 0.856 µM; with RXF 393 renal it was 0.295 µM. The TGI in the assay on SN12C renal was determined as 2.99 µM; with UO-31 renal it was 0.826 µM; with HOP-62 NSCLC, 1.86 µM; with RPMI-8226 leukemia, 1.34 µM; with ACHN renal, 0.743 µM; in the assay on UACC-257 melanoma it was 2.86 µM. Besides, the TGI is 0.93 µM with OVCAR-3 ovarian, 3.76 µM in the assay with PC-3 prostate and 0.888 µM with RXF 393 renal.

These data come from PubChem BioAssay (NCI).
